Experimental data: the NIST ThermoML archive (doi:10.1021/acs.jced.9b00561)
Numbers after ± are expanded uncertainties.

Assay: refractive index (Na D-line) (dimensionless); wn = mass fraction of the nth substance listed
Conditions: 323.15 K, 101.3 kPa, Liquid, Standard Abbe refractometry

**Q.** For `[Cl-].[Li+]` [lithium chloride] + O, which refractive index (w1 = 0.4841) is on record?
**A.** 1.439 ± 0.0018

**Q.** With `[Cl-].[Na+]` [sodium chloride] + O as the compound, how does the refractive index (w1 = 0.2683) read?
**A.** 1.3765 ± 0.0019

**Q.** Which refractive index (w1 = 0.0953) does the source give for `O=BOB([O-])OB([O-])OB=O.[Na+].[Na+]` [sodium tetraborate] + O here?
**A.** 1.3477 ± 0.0004
